# Assay results published in paper PMC7982320 (Pharmacology Research & Perspectives, 2021).
# “Also recorded” adds a separate entry of the source.
# Tests used:
# [1] = biological target: human BSEP (Homo sapiens, UniProt O95342); test: Transporter inhibition, vesicular transport assay; format: in vitro ADME
# [2] = biological target: T1, human OATP1B1 (Homo sapiens, UniProt Q9Y6L6); test: Transporter inhibition, uptake assay; format: in vitro ADME
# T1 sequence (Q9Y6L6 1-691): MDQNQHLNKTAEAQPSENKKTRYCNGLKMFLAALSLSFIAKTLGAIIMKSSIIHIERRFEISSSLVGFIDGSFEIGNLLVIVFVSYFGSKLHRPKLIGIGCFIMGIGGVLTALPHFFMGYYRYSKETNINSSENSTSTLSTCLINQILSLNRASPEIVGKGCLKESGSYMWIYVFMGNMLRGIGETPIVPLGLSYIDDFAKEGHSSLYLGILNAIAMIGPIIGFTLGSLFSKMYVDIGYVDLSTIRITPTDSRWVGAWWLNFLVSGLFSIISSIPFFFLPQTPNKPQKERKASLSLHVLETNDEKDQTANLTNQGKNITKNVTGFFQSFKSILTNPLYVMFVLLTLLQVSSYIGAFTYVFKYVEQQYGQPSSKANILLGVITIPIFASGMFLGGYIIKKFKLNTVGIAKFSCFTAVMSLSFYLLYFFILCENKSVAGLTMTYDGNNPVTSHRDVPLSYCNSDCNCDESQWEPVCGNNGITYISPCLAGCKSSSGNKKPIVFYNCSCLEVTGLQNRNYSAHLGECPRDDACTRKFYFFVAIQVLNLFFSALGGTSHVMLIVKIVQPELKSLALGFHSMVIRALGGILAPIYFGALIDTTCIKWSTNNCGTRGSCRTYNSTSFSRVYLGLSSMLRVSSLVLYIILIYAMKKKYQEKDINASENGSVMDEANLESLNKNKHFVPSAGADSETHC
# [3] = biological target: T2, human BCRP (Homo sapiens, UniProt Q9UNQ0); test: Transporter substrate assay, MDCKII‐BCRP monolayer bidirectional transport; format: in vitro ADME; conditions: BCRP ML; for Maximum net ER: maximum seen at 2.5 µM, n = 3
# T2 sequence (Q9UNQ0 1-655): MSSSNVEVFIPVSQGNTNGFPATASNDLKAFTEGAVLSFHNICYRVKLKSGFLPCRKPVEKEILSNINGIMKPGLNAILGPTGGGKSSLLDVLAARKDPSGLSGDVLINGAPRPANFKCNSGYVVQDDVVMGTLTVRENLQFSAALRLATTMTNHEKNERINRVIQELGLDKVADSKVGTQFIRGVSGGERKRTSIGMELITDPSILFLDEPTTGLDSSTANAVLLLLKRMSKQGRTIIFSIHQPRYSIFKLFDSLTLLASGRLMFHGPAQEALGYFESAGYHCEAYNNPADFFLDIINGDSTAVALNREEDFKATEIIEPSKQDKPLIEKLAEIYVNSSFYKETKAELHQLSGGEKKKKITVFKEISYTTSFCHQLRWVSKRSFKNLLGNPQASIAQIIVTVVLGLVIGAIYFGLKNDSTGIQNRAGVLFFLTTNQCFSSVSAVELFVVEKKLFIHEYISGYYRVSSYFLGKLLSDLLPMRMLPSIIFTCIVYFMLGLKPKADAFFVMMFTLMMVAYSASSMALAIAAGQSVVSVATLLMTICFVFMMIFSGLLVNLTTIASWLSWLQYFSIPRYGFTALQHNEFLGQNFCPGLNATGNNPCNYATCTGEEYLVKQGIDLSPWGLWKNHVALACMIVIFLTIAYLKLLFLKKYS
# [4] = biological target: T1, human OATP1B1; test: Uptake transporter substrate assay; format: in vitro ADME; conditions: OATP1B1 UPT; for Maximum fold accumulation over control: maximum seen at 2.5 µM and 20 min, n = 3
# [5] = biological target: T3, human OATP1B3 (Homo sapiens, UniProt Q9NPD5); test: Uptake transporter substrate assay; format: in vitro ADME; conditions: OATP1B3 UPT; for Maximum fold accumulation over control: maximum seen at 1 µM and 20 min, n = 3
# T3 sequence (Q9NPD5 1-702): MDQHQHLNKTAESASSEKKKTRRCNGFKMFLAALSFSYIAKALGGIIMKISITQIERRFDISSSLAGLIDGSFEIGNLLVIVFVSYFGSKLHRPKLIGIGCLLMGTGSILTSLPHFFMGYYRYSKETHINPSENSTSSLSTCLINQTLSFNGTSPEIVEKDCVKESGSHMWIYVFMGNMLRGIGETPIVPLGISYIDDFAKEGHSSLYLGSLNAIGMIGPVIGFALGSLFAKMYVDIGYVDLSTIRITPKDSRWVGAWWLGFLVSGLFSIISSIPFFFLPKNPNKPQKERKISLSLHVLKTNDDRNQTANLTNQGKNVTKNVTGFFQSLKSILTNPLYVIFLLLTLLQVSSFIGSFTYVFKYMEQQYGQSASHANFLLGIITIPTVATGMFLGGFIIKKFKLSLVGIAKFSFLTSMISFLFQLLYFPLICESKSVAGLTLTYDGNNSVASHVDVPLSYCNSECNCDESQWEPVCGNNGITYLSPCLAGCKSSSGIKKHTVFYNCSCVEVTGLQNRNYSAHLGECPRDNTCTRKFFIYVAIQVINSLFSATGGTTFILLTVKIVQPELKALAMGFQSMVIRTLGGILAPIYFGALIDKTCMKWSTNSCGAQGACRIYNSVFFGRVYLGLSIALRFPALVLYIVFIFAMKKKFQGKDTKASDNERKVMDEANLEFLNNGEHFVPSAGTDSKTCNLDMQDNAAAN
# [6] = test system: CYP isoforms (1A2, 2B6, 2C8, 2C9, 2C19, 2D6, 3A4); test: Time‐dependent and mechanism‐based CYP inhibition; format: in vitro ADME, human; conditions: 30 min preincubation in absence and presence of NADPH
# [7] = combined DMD patient populations, DFZ 0.9 mg/kg/day; ref PTC internal data; cited from earlier work
# [8] = listed as 6β‐hydroxy‐21‐desacetyl deflazacort
# Chain of human BSEP (O95342 whole entry): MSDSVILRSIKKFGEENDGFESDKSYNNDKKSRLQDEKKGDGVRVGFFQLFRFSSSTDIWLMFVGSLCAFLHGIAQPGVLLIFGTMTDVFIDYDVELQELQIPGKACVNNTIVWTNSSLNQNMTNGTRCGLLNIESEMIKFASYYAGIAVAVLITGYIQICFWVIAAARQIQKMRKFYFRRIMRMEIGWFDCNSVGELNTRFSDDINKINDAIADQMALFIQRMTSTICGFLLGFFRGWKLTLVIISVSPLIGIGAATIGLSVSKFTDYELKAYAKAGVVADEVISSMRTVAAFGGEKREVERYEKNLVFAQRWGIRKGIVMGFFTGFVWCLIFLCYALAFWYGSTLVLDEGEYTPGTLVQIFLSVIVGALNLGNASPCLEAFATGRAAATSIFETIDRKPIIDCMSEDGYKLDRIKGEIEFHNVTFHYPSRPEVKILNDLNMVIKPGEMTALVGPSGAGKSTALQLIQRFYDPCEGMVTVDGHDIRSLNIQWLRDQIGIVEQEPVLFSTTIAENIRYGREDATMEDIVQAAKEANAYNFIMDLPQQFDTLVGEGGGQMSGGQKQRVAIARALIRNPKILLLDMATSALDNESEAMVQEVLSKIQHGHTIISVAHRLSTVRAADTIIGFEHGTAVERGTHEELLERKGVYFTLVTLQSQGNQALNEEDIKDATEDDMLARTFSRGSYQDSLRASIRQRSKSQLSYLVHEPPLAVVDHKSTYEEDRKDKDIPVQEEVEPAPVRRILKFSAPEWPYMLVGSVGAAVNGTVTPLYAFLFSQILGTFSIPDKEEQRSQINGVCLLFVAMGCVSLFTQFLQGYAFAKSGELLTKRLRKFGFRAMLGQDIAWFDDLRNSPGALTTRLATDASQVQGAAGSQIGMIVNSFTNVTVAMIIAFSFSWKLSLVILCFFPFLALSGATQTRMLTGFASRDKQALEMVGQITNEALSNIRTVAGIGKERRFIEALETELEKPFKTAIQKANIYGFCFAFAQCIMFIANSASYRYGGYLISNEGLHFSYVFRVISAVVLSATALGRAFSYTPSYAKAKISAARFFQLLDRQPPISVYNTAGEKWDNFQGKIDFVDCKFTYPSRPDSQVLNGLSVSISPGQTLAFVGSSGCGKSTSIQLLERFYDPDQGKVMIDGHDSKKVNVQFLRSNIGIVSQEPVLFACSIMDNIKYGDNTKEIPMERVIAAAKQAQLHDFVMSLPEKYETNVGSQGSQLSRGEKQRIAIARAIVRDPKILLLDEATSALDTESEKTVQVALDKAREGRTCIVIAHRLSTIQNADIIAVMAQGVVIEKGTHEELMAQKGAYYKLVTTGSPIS
Compound,"Maximum inhibition at 50 µM ([1]; BSEP VT, n = 3)","inhibitory interaction with transporter ([1]; BSEP, up to 50 µM)","estimated plasma Cmax/IC50 ratio ([2]; OATP1B1, Cmax 0.34 µM, assumed 100% free)","Maximum inhibition at 50 µM ([2]; OATP1B1 UPT, n = 3)","IC50 ([2]; OATP1B1 UPT, brackets: 95% confidence interval) [µM]",Substrate potential [3],"Substrate potential [3, 8]",Maximum net ER [3],Substrate potential [4],"Substrate potential [4, 8]",Maximum fold accumulation over control [4],Substrate potential [5],"Substrate potential [5, 8]",Maximum fold accumulation over control [5],time‐dependent or mechanism‐based inhibition (IC50 shift) [6],"plasma Cmax at steady state, mean value [7] [ng/mL]"
"CC1=N[C@]2(C(=O)CO)[C@@H](C[C@H]3[C@@H]4C[C@@H](O)C5=CC(=O)C=C[C@]5(C)[C@H]4[C@@H](O)C[C@@]32C)O1 [6β‐OH‐21‐desDFZ, 6β‐Hydroxy‐21‐desacetyl deflazacort]",27 % of control,no inhibitory interaction,0.009,67 % of control,36.7,not a substrate,No,0.17 at 2.5 µM,not a substrate,No,1.02 at 2.5 µM and 20 min fold,not a substrate,No,1.47 at 1 µM and 20 min fold,neither time‐dependent nor metabolism‐based; also recorded: did not appear to be a time‐dependent or mechanism‐based inhibitor,142
[2’-^14C]-6β-hydroxy-21-desacetyl-deflazacort [^14C‐6β‐OH‐21‐desDFZ],–,–,–,–,–,–,–,0.17,–,–,< 2 fold,–,–,< 2 fold,–,–
